In patent publication US8445461B2, “Pharmaceutical composition for meniere's disease” (Setsuko Takeda, priority 2007, dated 2013):
Several values for one entry are separate records, joined by “and”; a condition that tells them apart may be missing. Equal entries are not always repeated. Where two headings read alike, the source gives them in different places.

What was measured:
[1] = test system: guinea pigs excreting normal feces; experiment: Antidiarrheal effect: observation of feces after oral administration of saccharides or sugar alcohols with or without polysaccharides (Example 1); assay type: in vivo
Protocol: The criteria for analyzing the conditions of feces (hardness, shape and spaces of feces in the intestine) are as shown in Table 2:
The hardness and microscopic findings of feces from the group administered with distilled water were assessed as “Normal” scoring 3, the feces having normal shape and the shape could rather easily change by pushing with fingers were assessed as “Slightly soft” scoring 2, those of which the shape had already changed or it could quite easily change by pushed with fingers were assessed as “Soft” scoring 1, and those of which the shape is muddy or watery or of no shape were assessed “Muddy” scoring 0. To be precese, there are no watery feces because of the nature of diets and thus the muddy feces correspond to watery and muddy feces in human.
Since the muddy feces comprise large content of water, they induce the high abdominal pressure and the flatulence and distension. […] In the case of gas generation, it appears that noxious symptom such as the flatulence and distension are synergistically deteriorated. Therefore, we assessed not only based on the hardness of feces, but also the size, smoothness of the surface and amount of feces.
In these experiments, I observed is the diarrhea caused by saccharides or sugar alcohols and antidiarrhreal effect of saccharides. Guinea pigs orally received saccharides or sugar alcohols, for example tetrose such as erythritol, pentose such as xylitol or xylose, hexose such as isosorbitol or the like in combination with or without polysaccharides for observation of the feces up to 6 hours after the administration.
Guinea pigs (body weight 280 to 320 g, normal feces) were divided into four groups: for Group 1-a, xylitol alone (Reference Example 1), or xylitol and xanthan gum or pectin; for Group 1-b, xylose alone (Reference Example 2), xylose and xanthan gum or pectin; for Group 1-c, erythritol alone (Reference Example 3), erythritol and pectin, erythritol and xanthan gum, or erythritol, pectin and natural aluminum silicate gel or calcium carbonate; and for Group 1-d, isosorbitol alone (Reference Example 4), or isosorbitol and xanthan gum or pectin were orally administered, respectively. The compounds are dissolved in distilled water and 8 ml/kg of said solution were administered as a single dose.
The feces were observed during 6 hours after the administration. When the animals fell into the most serious condition, the hardness and shape of the feces from said animals were assessed as the effect by saccharides or sugar alcohols in the animals.

[2] = test system: experimental endolymphatic hydrops; experiment: Endolymphatic hydrops decompression effect: IR-L, IR-S and regression lines in the operated ear; assay type: in vivo, guinea pigs; details: active agent 2.8 g/kg oral, alone or with additive; for Regression line IR-S vs IR-L: Y-intercept / Regression line IR-S vs IR-L: slope: operated ears, 3 hours after; for IR-L (%) increase ratio of the length of Reissner's membrane / IR-S (%) increase ratio of the cross-sectional area of the scala media: operated side, perfusion 3 hours after
Protocol: The endolymphatic hydrops-decompression effect of saccharides or sugar alcohols was evaluated by assaying as below in triplicate. Firstly, guinea pigs received the surgical obliteration of the endolymphatic sac in the left ear to prepare “experimental model animals with endolymphatic hydrops”. The surgical obliteration of the endolymphatic sac was carried out by burning the extraskeletal portion in the endolymphatic sac with a bipolar electrocoagulator. An endolymphatic sac plays an important role in the absorption of endolymphatic fluid. The inhibition of absorption of endolymphatic fluid was caused by burning the endolymphatic sac to prepare an experimental endolymphatic hydrops. Those hydrops are progressively formed. The size of hydrops becomes constant 2 weeks to month after the surgery and maintained for several months. In detail, see Non-patent Reference 8 for the surgery.
After 1 month, they were divided into 3 groups: Group 2-1 (groups 1-6), 60 animals; Group 2-2 (groups 7-10), 40 animals; and Group 2-3 (groups 11-20), […]. The animals in Group 2-1 received saccharides or sugar alcohols alone (Reference Example 5). The animals in Group 2-2 orally received saccharides or sugar alcohols added polysaccharides. The animals in Group 2-3 received other combinations of saccharides or sugar alcohols added polysaccharides. Animals were sacrificed after the oral administration and the observation and the assessment the gastrointestinal condition, and observed the morphological change of the cochlea mainly in the operated side (left side), in particular of the endolymphatic hydrops decompression effect.
I were obtained left sides of the temporal bones immediately following fixation and kept them in 10% formalin solution for 10 days or more. They were decalcified with 5% trichloroacetic acid and dehydrated with alcohol in increasing concentration, then embedded in paraffin and celloidin. The prepared blocks were cut serially in the horizontal plane. The mid-modiolar sections were stained in hematoxylin and eosin and studied under a light microscope. For the quantitative assessment of changes of the endolymphatic space, the change ratios of the length of Reissner's membrane and the cross-sectional area of the scala media in each turn were measured from the mid-modiolar sections of the cochlea.
From these parameters, the increase ratios (%) of the length of Reissner's membrane (IR-L) and the cross-sectional area (%) of the scala media (IR-S) of a total of four turns were calculated according to the equation as described below:
The increase ratio of the length of Reissner's membrane (IR-L)=100×Σ(Lx−L*x)/ΣL*x (x: first, second, third and fourth turns)
The increase ratio of the cross-section area of the scala media (IR-S)=100×Σ(Sx−S*x)/ΣS*x (x: first, second, third and fourth turns)
Since almost no difference is shown in the regression lines of each group, it cannot be understood that there is the decompression effect of erythritol alone. When endolymphatic hydrops is formed, the cross-sectional area of scala media and the length of Reissner's membrane will increase. It can be assumed from FIG. 1 that there is statistically a primary correlation between both of them in the operated side in the control group. The regression lines are; IR-S (distilled water)=4.011+1.212*IR-L (distilled water); R2=0.987, IR-S (1 hour after)=5.409+1.1*IR-L (1 hour after); R2=0.903, IR-S (2 hours after)=1.125+0.992*IR-L (2 hours after); R2=0.98, IR-S (3 hours after)=2.407+1.309*IR-L (3 hours after); R2=0.974, IR-S (6 hours after)=7.36+1.147*IR-L (6 hours after); R2=0.895, IR-S (12 hours after)=8.089+1.152*IR-L (12 hours after); R2=0.918.
The difference of decompression effect on endolymphatic hydrops depending on dose of pectin added and time-course of the decompression effect can hardly determined by comparing and analyzing the average and standard deviation of IR-L and IR-S in the operated side in each groups. […]

endolymphatic space = details: cited from earlier work; for Morphological change in the normal ear: glycerol 2.8 g/kg oral
guinea pigs = experiment: Reference Example 7: erythritol or isosorbitol added jelly, conditions of feces and gastrointestinal tract; assay type: in vivo
From the text: As described hereinbefore, erythritol or isosorbitol as saccharides or sugar alcohols added jelly as a thickner were orally administered to 10 guinea pigs (280 to 350 g body weight) as shown in Table 41. The conditions of feces were observed.

[3] = saccharide or sugar alcohol 2.8 g/kg oral, alone or with additive, feces observed for 6 hours
[4] = active agent 1.4 g/kg oral, within 6 hours
[5] = active agent 2.1 g/kg oral, within 6 hours
[6] = active agent 2.8 g/kg oral, alone or with additive of the label
[7] = active agent 2.8 g/kg oral, alone or with additives of the label, most serious condition within 6 hours
[8] = active agent 3.5 g/kg oral, alone or with additive of the label, within 6 hours
[9] = active agent 5.6 g/kg oral, alone or with additive of the label, within 6 hours
[10] = agent 2.8 g/kg oral + Jelly 0.1 g/kg, 5 animals
[11] = agent 2.8 g/kg oral + Jelly 0.25 g/kg, 5 animals
[12] = agent 2.8 g/kg oral, no additive dosage (agent alone)

## OC[C@@H](O)[C@@H](O)[C@H](O)[C@H](O)CO [mannitol]
[1]; [3]
  Hardness of feces 0 (Muddy): number of animals: 1
  Hardness of feces 1 (Soft): number of animals: 2
  Hardness of feces 2 (Slightly soft): number of animals: 1
  Hardness of feces 3 (Normal): number of animals: 0

## OCC(O)CO [Gly alone, glycerol]
[2]
  Regression line IR-S vs IR-L: Y-intercept: −2.455
  Regression line IR-S vs IR-L: slope: 0.887
  IR-L (%) increase ratio of the length of Reissner's membrane: 37.4 ± 31.2%
  IR-S (%) increase ratio of the cross-sectional area of the scala media: 31.0 ± 27.5%
Endolymphatic space; 2 hours after
  Morphological change in the normal ear: collapse
Endolymphatic space; 6 hours after
  Morphological change in the normal ear: mild hydrops
Endolymphatic space
  Time until exertion of effect after the oral administration: about 2 hours

## O[C@@H]1CO[C@H]2[C@@H]1OC[C@@H]2O [Isosorbitol]
[2]; listed as IB alone
  Regression line IR-S vs IR-L: Y-intercept: 7.143 and 6.542
  Regression line IR-S vs IR-L: slope: 1.003 and 1.011
[2]
  IR-L (%) increase ratio of the length of Reissner's membrane: 31.3 ± 36.5%
  IR-S (%) increase ratio of the cross-sectional area of the scala media: 40.9 ± 38.2%
[1]; [4]
  Hardness of feces: Muddy (number of animals): 0
  Hardness of feces: Normal (number of animals): 3
  Hardness of feces: Slightly soft (number of animals): 1
  Hardness of feces: Soft (number of animals): 0
[1]; [5]
  Hardness of feces: Muddy (number of animals): 0
  Hardness of feces: Normal (number of animals): 0
  Hardness of feces: Slightly soft (number of animals): 2
  Hardness of feces: Soft (number of animals): 2
[1]; [6]
  Time after administration of the peak (most serious) diarrhea: Three to four hours after
  Time after administration when diarrhea / softening of feces started: 2 h
  Time after administration when feces recovered to (almost) normal: 6 h
[1]; [7]
  Hardness of feces: Muddy (number of animals): 1
  Hardness of feces: Normal (number of animals): 2
  Hardness of feces: Slightly soft (number of animals): 2
  Hardness of feces: Soft (number of animals): 2
[1]; [8]
  Hardness of feces: Muddy (number of animals): 3
  Hardness of feces: Normal (number of animals): 0
  Hardness of feces: Slightly soft (number of animals): 0
  Hardness of feces: Soft (number of animals): 1
[1]; [9]
  Hardness of feces: Muddy (number of animals): 3
  Hardness of feces: Normal (number of animals): 0
  Hardness of feces: Slightly soft (number of animals): 0
  Hardness of feces: Soft (number of animals): 0
Endolymphatic space
  Time until exertion of effect after the oral administration: ~6 h
Guinea pigs; [10]
  Hardness of feces: Muddy (number of animals): 1
  Hardness of feces: Normal (number of animals): 2
  Hardness of feces: Slightly soft (number of animals): 0
  Hardness of feces: Soft (number of animals): 2
Guinea pigs; [11]
  Hardness of feces: Muddy (number of animals): 0
  Hardness of feces: Normal (number of animals): 2
  Hardness of feces: Slightly soft (number of animals): 0
  Hardness of feces: Soft (number of animals): 3
Guinea pigs; [12]
  Hardness of feces: Muddy (number of animals): 1
  Hardness of feces: Normal (number of animals): 2
  Hardness of feces: Slightly soft (number of animals): 2
  Hardness of feces: Soft (number of animals): 3
